Measurements from patent publication US20230117034A1, “PYRAZOLOTRIAZINES” (Bayer Aktiengesellschaft, priority 2019, published 2023).

Tests used:
[1] = biological target: T1, CYCLIN K (nuclear staining in CAL-120 cells) (Homo sapiens, UniProt O75909); assay: CYCLIN K nuclear protein level: immunofluorescence high content analysis (CAL-120); assay type: cell-based; details: 24 h, 50% reduction of nuclear CCNK staining intensity, median, read-out: CYCLIN K degradation IF, DC50-[mol/l] (median)
T1 construct: endogenous in cells; host or cells: CAL-120 human breast cancer cells (DSMZ ACC 459)
T1 sequence (O75909 whole entry): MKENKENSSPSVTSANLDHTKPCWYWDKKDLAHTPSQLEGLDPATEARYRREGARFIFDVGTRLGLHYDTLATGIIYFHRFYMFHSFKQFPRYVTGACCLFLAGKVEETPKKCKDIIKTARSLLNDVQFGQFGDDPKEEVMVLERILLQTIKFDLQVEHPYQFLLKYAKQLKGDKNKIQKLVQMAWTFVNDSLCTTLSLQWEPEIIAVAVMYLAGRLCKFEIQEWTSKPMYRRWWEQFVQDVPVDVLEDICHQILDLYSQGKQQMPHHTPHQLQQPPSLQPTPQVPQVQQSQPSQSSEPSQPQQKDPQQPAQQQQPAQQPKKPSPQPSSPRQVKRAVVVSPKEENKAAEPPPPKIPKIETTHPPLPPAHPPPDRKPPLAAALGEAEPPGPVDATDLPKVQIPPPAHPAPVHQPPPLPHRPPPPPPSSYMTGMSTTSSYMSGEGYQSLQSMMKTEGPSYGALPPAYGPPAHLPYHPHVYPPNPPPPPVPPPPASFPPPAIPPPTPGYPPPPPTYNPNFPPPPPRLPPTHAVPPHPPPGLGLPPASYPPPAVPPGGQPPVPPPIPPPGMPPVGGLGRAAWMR
T1 sequence (Q9NYV4 whole entry partner): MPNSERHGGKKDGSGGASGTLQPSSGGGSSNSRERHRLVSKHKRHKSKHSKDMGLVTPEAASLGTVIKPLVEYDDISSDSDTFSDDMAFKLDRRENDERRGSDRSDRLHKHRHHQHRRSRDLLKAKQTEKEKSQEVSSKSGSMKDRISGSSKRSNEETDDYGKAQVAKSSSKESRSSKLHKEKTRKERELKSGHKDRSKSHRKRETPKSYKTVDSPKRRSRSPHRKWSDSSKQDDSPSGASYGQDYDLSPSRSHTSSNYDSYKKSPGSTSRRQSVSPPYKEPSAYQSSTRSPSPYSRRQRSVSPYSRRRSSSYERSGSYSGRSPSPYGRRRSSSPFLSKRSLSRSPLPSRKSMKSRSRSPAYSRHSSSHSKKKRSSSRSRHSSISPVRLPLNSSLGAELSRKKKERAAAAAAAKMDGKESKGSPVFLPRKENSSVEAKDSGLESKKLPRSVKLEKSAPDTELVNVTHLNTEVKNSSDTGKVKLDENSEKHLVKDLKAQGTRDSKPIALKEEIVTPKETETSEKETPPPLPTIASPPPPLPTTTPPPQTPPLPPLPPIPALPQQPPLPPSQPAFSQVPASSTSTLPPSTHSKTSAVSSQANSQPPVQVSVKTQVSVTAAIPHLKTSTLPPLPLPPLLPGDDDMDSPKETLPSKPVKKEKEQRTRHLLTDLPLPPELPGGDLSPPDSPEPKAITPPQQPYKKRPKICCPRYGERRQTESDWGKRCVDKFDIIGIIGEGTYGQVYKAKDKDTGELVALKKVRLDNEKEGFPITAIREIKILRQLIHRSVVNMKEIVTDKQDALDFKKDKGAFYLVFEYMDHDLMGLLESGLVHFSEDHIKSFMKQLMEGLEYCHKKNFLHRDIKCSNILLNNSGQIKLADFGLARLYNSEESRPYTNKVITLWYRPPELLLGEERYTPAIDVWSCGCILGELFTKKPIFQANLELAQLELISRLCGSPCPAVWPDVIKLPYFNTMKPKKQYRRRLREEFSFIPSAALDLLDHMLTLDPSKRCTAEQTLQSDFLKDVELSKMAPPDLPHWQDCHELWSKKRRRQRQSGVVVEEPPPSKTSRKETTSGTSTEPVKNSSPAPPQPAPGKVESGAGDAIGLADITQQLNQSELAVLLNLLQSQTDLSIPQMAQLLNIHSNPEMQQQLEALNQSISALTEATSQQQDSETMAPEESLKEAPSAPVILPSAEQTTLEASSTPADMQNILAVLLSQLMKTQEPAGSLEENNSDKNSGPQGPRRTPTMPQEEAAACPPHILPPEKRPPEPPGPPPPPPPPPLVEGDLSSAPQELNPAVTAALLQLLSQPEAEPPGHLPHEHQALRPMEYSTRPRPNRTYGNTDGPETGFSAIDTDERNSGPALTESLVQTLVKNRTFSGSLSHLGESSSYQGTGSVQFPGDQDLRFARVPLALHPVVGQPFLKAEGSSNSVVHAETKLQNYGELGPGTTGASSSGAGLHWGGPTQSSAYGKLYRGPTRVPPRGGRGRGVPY
Method in brief: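 Readout is automated confocal image analysis of nuclear cyclin K immunofluorescence (Hoechst nuclei) after PFA fixation. Cells were CAL-120, exposed to compound dose-response 24 h at 37 °C; values are DC50 for halving nuclear CCNK signal relative to DMSO and control wells.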

[2] = system: BRCA1 mRNA expression in MDA-MB-231 cells; assay: qRT-PCR assay: BRCA1 mRNA expression in MDA-MB-231; assay type: cell-based, human; details: Homo sapiens, MDA-MB-231, Inhibition of BRCA1 mRNA expression in MDA-MB-231 cells; median; read-out: RTqPCR-MDA-MB-231, IC50, BRCA1 (median)
Method in brief: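 Human breast cancer cells, 200,000/well, were treated with test agents for 24 h without interruption after a 24 h settling period. Gene expression came from qPCR on cDNA made from 600 ng RNA, relative to GAPDH.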

[3] = system: CAL-120, human breast adenocarcinoma cells; assay: Proliferation assay CAL-120 (crystal violet, 4 days); assay type: cell-based; details: Homo sapiens, CAL-120, 96 h, CAL-120 cells, median, read-out: Prolif-CAL-120, IC50-[mol/l] (median)
Method in brief: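 Crystal violet proliferation read-out after 4 days of compound exposure (0.01-10 µmol/L; solvent 0.1% DMSO). Extinction at 595 nm, set between zero-point (0%) and vehicle (100%), fitted with 4 parameters to give IC50.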

Row | SMILES | DC50 [1] [nM] | IC50 [2] [nM] | IC50 [3] [nM]
1 | Brc1cnn2c(NCc3nc4ccccc4[nH]3)nc(N3C[C@H]4C[C@@H]3CN4)nc12 [Example 269, N-[(1H-benzimidazol-2-yl)methyl]-8-bromo-2-[(1R,4R)-2,5-diazabicyclo[2.2.1]heptan-2-yl]pyrazolo[1,5-a][1,3,5]triazin-4-amine] | 0.324 | 8.39 | 7.31
2 | Fc1ccc2[nH]c(CNc3nc(N4CCOCC4)nc4c(C5CCC5)cnn34)nc2c1F [Example 264, 8-cyclobutyl-N-[(4,5-difluoro-1H-benzimidazol-2-yl)methyl]-2-(morpholin-4-yl)pyrazolo[1,5-a][1,3,5]triazin-4-amine] | 1.8 | 6.32 | 8.7
3 | N[C@H]1CCN(c2nc(NCc3nc4ccccc4[nH]3)n3ncc(Br)c3n2)C1 [Example 245, 2-[(3S)-3-aminopyrrolidin-1-yl]-N-[(1H-benzimidazol-2-yl)methyl]-8-bromopyrazolo[1,5-a][1,3,5]triazin-4-amine] | 0.627 | 7.35 | 3.1
4 | N[C@H]1[C@@H]2C[C@H]1CN(c1nc(NCc3nc4ccccc4[nH]3)n3ncc(Br)c3n1)C2 [Example 288, 2-[(1R,5S,6r)-6-amino-3-azabicyclo[3.1.1]heptan-3-yl]-N-[(1H-benzimidazol-2-yl)methyl]-8-bromopyrazolo[1,5-a][1,3,5]triazin-4-amine] | 0.418 | 2.69 | 1.8
5 | Fc1ccc2[nH]c(CNc3nc(N4CCOCC4)nc4c(Br)cnn34)nc2c1F [Example 25, 8-bromo-N-[(4,5-difluoro-1H-benzimidazol-2-yl)methyl]-2-(morpholin-4-yl)pyrazolo[1,5-a][1,3,5]triazin-4-amine] | 0.263 | 3.01 | 2.62
6 | Fc1ccc2[nH]c(CNc3nc(N4CCOCC4)nc4c(C(F)(F)F)cnn34)nc2c1 [Example 273, N-[(5-fluoro-1H-benzimidazol-2-yl)methyl]-2-(morpholin-4-yl)-8-(trifluoromethyl)pyrazolo[1,5-a][1,3,5]triazin-4-amine] | 0.66 | 1.95 | 4.49
7 | N[C@@H]1CCN(c2nc(NCc3nc4ccccc4[nH]3)n3ncc(Br)c3n2)C1 [Example 250, 2-[(3R)-3-aminopyrrolidin-1-yl]-N-[(1H-benzimidazol-2-yl)methyl]-8-bromopyrazolo[1,5-a][1,3,5]triazin-4-amine] | 0.407 | 10.5 | 3.49
8 | CNC1CCN(c2nc(NCc3nc4ccccc4[nH]3)n3ncc(Br)c3n2)CC1 [Example 272, N-[(1H-benzimidazol-2-yl)methyl]-8-bromo-2-[4-(methylamino)piperidin-1-yl]pyrazolo[1,5-a][1,3,5]triazin-4-amine] | 1.38 | 7.91 | 22.4
9 | CN[C@H]1CCN(c2nc(NCc3nc4ccccc4[nH]3)n3ncc(Br)c3n2)C1 [Example 252, N-[(1H-benzimidazol-2-yl)methyl]-8-bromo-2-[(3S)-3-(methylamino)pyrrolidin-1-yl]pyrazolo[1,5-a][1,3,5]triazin-4-amine] | 2.42 | 10.2 | 38.7
10 | CN[C@@H]1CCN(c2nc(NCc3nc4ccccc4[nH]3)n3ncc(Br)c3n2)C1 [Example 253, N-[(1H-benzimidazol-2-yl)methyl]-8-bromo-2-[(3R)-3-(methylamino)pyrrolidin-1-yl]pyrazolo[1,5-a][1,3,5]triazin-4-amine] | 1.82 | 20.8 | 6.91
11 | Fc1ccc2[nH]c(CNc3nc(N4C[C@H]5CC[C@@H](C4)N5)nc4c(C5CC5)cnn34)nc2c1F [Example 294, 8-cyclopropyl-2-[(1R,5S)-3,8-diazabicyclo[3.2.1]octan-3-yl]-N-[(4,5-difluoro-1H-benzimidazol-2-yl)methyl]pyrazolo[1,5-a][1,3,5]triazin-4-amine] | 0.56 | 1.16 | 1.42
12 | Cc1ccnc2[nH]c(CNc3nc(N4CCOCC4)nc4c(Br)cnn34)nc12 [Example 20, 8-bromo-N-[(7-methyl-3H-imidazo[4,5-b]pyridin-2-yl)methyl]-2-(morpholin-4-yl)pyrazolo[1,5-a][1,3,5]triazin-4-amine] | 1.35 | 6.81 | 14.2

Other lines, results leading:

Row | DC50 [1] [nM] | IC50 [2] [nM] | IC50 [3] [nM] | SMILES
13 | 0.863 | 8.07 | 4.6 | Fc1cc2nc(CNc3nc(N4CCOCC4)nc4c(C5CC5)cnn34)[nH]c2cc1Cl [Example 307, N-[(6-chloro-5-fluoro-1H-benzimidazol-2-yl)methyl]-8-cyclopropyl-2-(morpholin-4-yl)pyrazolo[1,5-a][1,3,5]triazin-4-amine]
14 | 0.367 | 9.13 | 26.1 | Brc1cnn2c(NCc3nc4ccccc4[nH]3)nc(N3C[C@H]4CNC[C@H]4C3)nc12 [Example 283, N-[(1H-benzimidazol-2-yl)methyl]-8-bromo-2-[(3aR,6aS)-hexahydropyrrolo[3,4-c]pyrrol-2(1H)-yl]pyrazolo[1,5-a][1,3,5]triazin-4-amine]
15 | 1.89 | 10.6 | 20.8 | Fc1ccc2[nH]c(CNc3nc(N4CCOCC4)nc4c(C5CC5(F)F)cnn34)nc2c1 (racemic) [Example 286, 8-[(1RS)-2,2-difluorocyclopropyl]-N-[(5-fluoro-1H-benzimidazol-2-yl)methyl]-2-(morpholin-4-yl)pyrazolo[1,5-a][1,3,5]triazin-4-amine]
16 | 1.02 | 5.46 | 10.2 | Fc1ccc2[nH]c(CNc3nc(N4CCOCC4)nc4c(CC(F)(F)F)cnn34)nc2c1 [Example 308, N-[(5-fluoro-1H-benzimidazol-2-yl)methyl]-2-(morpholin-4-yl)-8-(2,2,2-trifluoroethyl)pyrazolo[1,5-a][1,3,5]triazin-4-amine]
17 | 0.385 | 5.68 | 8.88 | CN1CCN(c2nc(NCc3nc4c(F)cccc4[nH]3)n3ncc(C(F)(F)F)c3n2)CC1 [Example 293, N-[(4-fluoro-1H-benzimidazol-2-yl)methyl]-2-(4-methylpiperazin-1-yl)-8-(trifluoromethyl)pyrazolo[1,5-a][1,3,5]triazin-4-amine]
18 | 0.679 | 51.5 | 22.3 | CN1CCN(c2nc(NCc3nc4ccccc4[nH]3)n3ncc(C(F)(F)F)c3n2)CC1 [Example 297, N-[(1H-benzimidazol-2-yl)methyl]-2-(4-methylpiperazin-1-yl)-8-(trifluoromethyl)pyrazolo[1,5-a][1,3,5]triazin-4-amine]
19 | 10 | 15.3 | 18.6 | Brc1cnn2c(NCc3nc4ccccc4[nH]3)nc(N3CCC4(CCN4)CC3)nc12 [Example 291, N-[(1H-benzimidazol-2-yl)methyl]-8-bromo-2-(1,7-diazaspiro[3.5]nonan-7-yl)pyrazolo[1,5-a][1,3,5]triazin-4-amine]
20 | 0.518 | 2.04 | 2.32 | Cc1cc2nc(CNc3nc(N4CCN(C)CC4)nc4c(C5CC5)cnn34)[nH]c2cc1C [Example 312, 8-cyclopropyl-N-[(5,6-dimethyl-1H-benzimidazol-2-yl)methyl]-2-(4-methylpiperazin-1-yl)pyrazolo[1,5-a][1,3,5]triazin-4-amine]
